Measured values as given in patent publication US10125182B2, “Peptides hormone analogues derivable from preproglucagon” (IMPERIAL INNOVATIONS LIMITED, priority 2014, dated 2018).
Ends that are not written are not given here.

Legend:
Type in all cases: in vivo
[1] = Rat pharmacokinetic studies: plasma concentration after subcutaneous injection with ZnCl2 (radioimmunoassay); settings: 4 rats, 2 mg of each compound in 20 μl aqueous ZnCl2 at 1:1 molar ratio, 3 days (FIG. 7)
Protocol: Male C57BL/6 mice (Harlan) or male Wistar rats (Charles River Ltd, Margate, UK) were used for all animal experiments. The pharmacokinetics of a peptide hormone analogue of the invention in rat was evaluated over 7 days. 4 rats were injected subcutaneously with the peptide hormone analogue G2051 [SEQ ID NO 197]. Each injection was of […] total volume/rat containing 2 mg peptide and 1 zinc ion (as ZnCl2) per peptide molecule. Blood was collected at the indicated time points, and the concentration of the peptide hormone analogue was determined. Peptide levels were assessed by/using radioimmunoassay using R4 exendin-4 antibody. […] 4 rats were injected subcutaneously with the peptide hormone analogue G2051 [SEQ ID NO 197]. Each injection was of 20 μl total volume/rat containing 2 mg peptide and 1 zinc ion (as ZnCl2) per peptide molecule. Blood was collected at the indicated time points, and the concentration of the comparator compound was determined. Peptide levels were assessed by/using radioimmunoassay using R4 exendin-4 antibody.

[2] = Mice feeding studies: body weight increase over 7 days; settings: 200 nmol/kg subcutaneous in saline, compared with comparator having only His30-His31-His32 (G1721 or G1779; FIGS. 4, 5)
[3] = Mice feeding studies: cumulative food intake after subcutaneous administration; settings: mice fasted 16 h, over 48 hours
Protocol: Male C57BL/6 mice (Harlan) or male Wistar rats (Charles River Ltd, Margate, UK) were used for all animal experiments.
Mice were individually housed in IVC cages. Animals were randomised into treatment groups, with stratification by body weight. Mice were fasted overnight (16 hrs) prior to peptide or vehicle administration. All peptide solutions were prepared freshly, immediately prior to administration. The vehicle used for all studies was 5% v/v water and 95% v/v sodium chloride (0.9% w/v). Peptide and vehicle were administered by subcutaneous injection, with dosage corrected for bodyweight. The injection volume was […]. […] Food intake was measured at 24 and 48 hours post injection. All statistics are calculated using a one-way ANOVA with Dunnett's post-test or one-way ANOVA with Bonferroni post-test.
Peptide hormone analogues of the invention (G1698 [SEQ ID NO 1], 500 nmol/kg dosage, reconstituted in saline, and G1718 [SEQ ID NO 6], 200 nmol/kg dosage, reconstituted in saline), comparator compounds (G1697, 500 nmol/kg dosage, reconstituted in saline, and G1717, 200 nmol/kg dosage, reconstituted in saline), or saline (vehicle control group) were administered subcutaneously to mice (group size 4-6 animals). […] Food intake (in grams) was measured at time intervals over 48 hours.

Substance | initial increase or spike in plasma concentration level [1] | other results
HSQGTFTSDYSKYLDSKKAQEFVQWLMNT-NH2 [G200] | initial increase or “spike” in plasma concentration level is observed | –
G1781: peptide hormone analogue of the invention; full sequence only in FIG. 1 (HSQGTFTSDYSKYLDERRAHEFIEWLLNGGHHHH; hormone analogue) | – | reduction of body weight increase relative to saline control [2]: more potent and more sustained reduction
HSQGTFTSDYSKYLDSKKAQEFVEWLMNT [G202] | initial increase or “spike” in plasma concentration level is observed | –
HSQGTFTSDYSKYLDHRRAKDFVQWLMNT-NH2 [G94] | initial increase or “spike” in plasma concentration level is observed | –
G1698: peptide hormone analogue of the invention; C-terminal extension His30-His31-His32-His33; full sequence only in FIG. 1 (HSQGTFTSDYSKYLDERRAHEFIEWLLNGHHHH; hormone analogue) | – | reduction of cumulative food intake relative to saline control ([3]; 500 nmol/kg subcutaneous in saline, compared with comparator G1697 (FIG. 2)): more potent and more sustained reduction
G1718: peptide hormone analogue of the invention; C-terminal extension His30-His31-His32-His33; full sequence only in FIG. 1 (HSQGTFTSDYSHYLDQRRAHEFIQWLLNGHHHH; hormone analogue) | – | reduction of cumulative food intake relative to saline control ([3]; 200 nmol/kg subcutaneous in saline, compared with comparator G1717 (FIG. 3)): more potent and more sustained reduction
HSQGTFTSDYSKYLDSKKAQEFVQWLLNT [G162] | initial increase or “spike” in plasma concentration level is observed | –
G1722: peptide hormone analogue of the invention; C-terminal extension His30-His31-His32-His33; full sequence only in FIG. 1 (HSQGTFTSDYSHYLDSKRAHEFIQWLLNGHHHH; hormone analogue) | – | reduction of body weight increase relative to saline control [2]: more potent and more sustained reduction
